Measured values from US20020165233A1, “Quinoxaline containing medicaments for post exposure prophylaxis of an HIV infection” (priority 1999, published 2002).

Assays:
RT-SHIV = assay: env specific cell proliferation assay; assay type: in vivo, rhesus monkeys
Protocol: (§1) Nine rhesus monkeys (male, 2 years old, 2-3 kg) were seronegative for SIV, Simian T cell Leukemia Virus (STLV), B virus and Type D retroviruses. 15 mg/kg body weight of COMPOUND A was subcutaneously administered into animals twice a day (12 h interval) for 28 d. Animals were divided into three groups. All animals were intravenously administered with 100 TCID50 of RT-SHIV The first group consisted of three animals treated with COMPOUND A from 8 h post exposure for 28 d. The second group of animals was treated with COMPOUND A from 24 h post exposure for 28 d. The third group (control) received the solvent that was used to dissolve COMPOUND A (PEG400:glycerol:water=[…]) from 8 h post exposure for 28 d.
Cell Proliferation Assay:
The method used was described previously [J. Virol, 1996: 70, 678-681]. In brief, PBMC was thawed and incubated as described in the CTL assay. Triplicates of PBMC (4×10^5) cells were incubated with autologous B-LCL (1×10^5) that had been infected with SIV env-rvv or control vv and fixed with 1.5% paraformaldehyde in phosphate buffered saline (PBS). ^3H-thymidine was added to 8 h before harvesting. The incorporation of ^3H-thymidine was measured by liquid scintillation counting. The stimulation index was calculated as (mean c.p.m. of PBMC cultured with env-rvv/mean c.p.m. of PBMC cultured with control vv).

[1] = set-up: species or system rhesus monkeys; settings: rhesus monkey, in vivo, sc, 15 mg/kg
Protocol: as §1

Which “proliferative response at week 40” value (RT-SHIV; all treated animals versus untreated group) does the source give for `CC[C@H]1C(=O)Nc2ccc(F)cc2N1C(=O)OC(C)C` [Compound A, (3S)-ethyl-6-fluoro-4-isopropyloxycarbonyl-3,4-dihydroquinoxalin-2(1H)-one] here?
The value was “levels higher than those of the untreated group”.

And the “env specific proliferative responses” value (RT-SHIV; all treated animals, 3 weeks through 40 weeks post exposure, versus untreated)?
The value was “Significantly higher”.

And the adverse effect [1]?
The adverse effect was “without any adverse effect”.
